Test system: Apt-WO-06 (AWO-06) (DNA, aptamer) GTGAGTTTACATGGGGTCCTATAGGCGAACAATCG
Test: graphene oxide fluorescence recovery
Details: buffer composition not stated; aptamer 0.5-30 nM titrated; displaced from graphene oxide; apparent

`CC1COc2c(N3CCN(C)CC3)c(F)cc3c(=O)c(C(=O)O)cn1c23` (stereo not shown) was tested, and the Kd was 28.16 nM.

— article PMC10974795 (2024)
